Values quoted from earlier work as cited in US20040248861A1, “Modified delta5-androstenes having improved bioavailability” (priority 2003, published 2004).

Legend:
[1] = patients with normal adrenal function taking supplemental DHEA
virus similar to HIV = conditions: doses as low as 8 mg/kg/day
[2] = monkeys, very high doses (equivalent to about 70 grams/day for a human)
[3] = supplement to diet
flu viruses = conditions: mice infected with flu viruses; to some of the viruses
[4] = 200 mg/day for 28 days
[5] = single transdermal dose of 25 mg
[6] = not given; remark: listed apart in the source

C[C@]12CC[C@H](O)CC1=CC[C@@H]1[C@@H]2CC[C@]2(C)C(=O)CC[C@@H]12 [DHEA, dehydroepiandrosterone]
acne (share of patients) [1]: over 50%

C[C@]12CC[C@H](O)CC1=CC(=O)[C@@H]1[C@@H]2CC[C@]2(C)C(=O)CC[C@@H]12 [7-keto-DHEA, 7-keto-dehydroepiandrosterone]
metabolism to estrogens or testosterone (in vivo): does not metabolize
estradiol levels in the blood (supplementary 7-keto-DHEA): decrease
testosterone levels in the blood (supplementary 7-keto-DHEA): decrease
bodyweight (virus similar to HIV): regained bodyweight
salivation [2]: caused excess salivation
T3 thyroid stimulating hormone [3]: increased
body fat [3]: statistically significant decreased
bodyweight [3]: statistically significant decreased
anti-viral antibodies (flu viruses): increase
safety problems in clinical trials [4]: no safety problems
blood levels of HDL-cholesterol [5]: improved

C[C@]12CC[C@H]3[C@@H](CCC4=CC(=O)CC[C@@]43C)[C@@H]1CC[C@@H]2O [free testosterone, testosterone]
effect on serum levels of testosterone ([6]; oral, equivalent dose (63 mg)): no noticeable effect

CCCCCCCCCCC(=O)O[C@H]1CC[C@H]2[C@@H]3CCC4=CC(=O)CC[C@]4(C)[C@H]3CC[C@]12C [testosterone undecanoate]
increase in serum levels of testosterone ([6]; single oral dose of 100 mg, dissolved in oil): 2.3 fold
